According to BindingDB's records for doi:10.1038/nchembio.2134 (University of Pennsylvania, 2016):

Experiments:
Assay in all cases: HDAC6 fluorescence anisotropy assay
Conditions in all cases: 25 °C
[1] = target: T1, Histone deacetylase 6 [440-798] (Danio rerio, UniProt F8W4B7)
T1 construct: 440-798
T1 sequence (F8W4B7 whole entry): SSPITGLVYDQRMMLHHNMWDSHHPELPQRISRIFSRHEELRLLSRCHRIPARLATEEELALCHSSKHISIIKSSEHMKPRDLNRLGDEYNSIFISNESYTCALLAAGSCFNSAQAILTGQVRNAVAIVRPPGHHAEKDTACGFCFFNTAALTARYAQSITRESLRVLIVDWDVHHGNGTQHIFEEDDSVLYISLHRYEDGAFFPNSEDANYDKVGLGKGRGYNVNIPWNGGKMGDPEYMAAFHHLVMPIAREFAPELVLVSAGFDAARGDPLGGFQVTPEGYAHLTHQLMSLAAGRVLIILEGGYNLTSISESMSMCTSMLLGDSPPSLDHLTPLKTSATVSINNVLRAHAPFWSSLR

[2] = target: T2, Histone deacetylase 6 [84-835,H651V] (Homo sapiens, UniProt Q9UBN7, H651V)
T2 construct: 84-835
T2 sequence (Q9UBN7 84-835 H651V): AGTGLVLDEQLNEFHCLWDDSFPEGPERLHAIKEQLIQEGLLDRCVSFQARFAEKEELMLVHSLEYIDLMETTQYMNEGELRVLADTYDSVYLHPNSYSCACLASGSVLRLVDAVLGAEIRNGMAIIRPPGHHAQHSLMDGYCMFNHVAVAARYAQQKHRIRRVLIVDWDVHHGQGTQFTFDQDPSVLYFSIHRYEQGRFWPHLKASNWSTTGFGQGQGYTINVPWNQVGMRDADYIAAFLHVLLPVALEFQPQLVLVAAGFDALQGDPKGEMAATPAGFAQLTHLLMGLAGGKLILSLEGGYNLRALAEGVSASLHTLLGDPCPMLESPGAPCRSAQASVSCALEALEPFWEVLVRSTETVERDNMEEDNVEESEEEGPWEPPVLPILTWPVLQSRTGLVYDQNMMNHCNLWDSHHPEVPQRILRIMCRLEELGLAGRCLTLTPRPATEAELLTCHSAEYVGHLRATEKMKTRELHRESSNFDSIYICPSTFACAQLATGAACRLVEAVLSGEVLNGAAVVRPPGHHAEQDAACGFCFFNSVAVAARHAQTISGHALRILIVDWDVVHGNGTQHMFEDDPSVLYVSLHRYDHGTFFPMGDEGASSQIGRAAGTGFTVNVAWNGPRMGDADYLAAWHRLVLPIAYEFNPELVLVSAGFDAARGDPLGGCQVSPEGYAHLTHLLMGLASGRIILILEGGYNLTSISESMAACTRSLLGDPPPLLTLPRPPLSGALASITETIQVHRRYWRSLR

[3] = target: T3, Histone deacetylase 6 [60-420] (Danio rerio, UniProt F8W4B7)
T3 construct: 60-420
T3 sequence (F8W4B7 whole entry): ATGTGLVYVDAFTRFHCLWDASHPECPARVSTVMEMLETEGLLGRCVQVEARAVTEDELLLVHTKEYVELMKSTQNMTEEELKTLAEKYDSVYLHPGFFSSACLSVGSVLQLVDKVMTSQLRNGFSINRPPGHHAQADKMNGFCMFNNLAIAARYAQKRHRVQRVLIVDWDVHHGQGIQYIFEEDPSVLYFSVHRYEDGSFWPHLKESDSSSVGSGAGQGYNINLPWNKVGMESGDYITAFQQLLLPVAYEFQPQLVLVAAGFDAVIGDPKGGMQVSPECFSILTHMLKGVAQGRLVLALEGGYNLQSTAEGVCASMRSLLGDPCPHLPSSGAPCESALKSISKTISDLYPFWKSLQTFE

[4] = target: T4, Histone deacetylase 6 [440-798,S531A] (Danio rerio, UniProt F8W4B7, S531A)
T4 construct: 440-798
T4 sequence (F8W4B7 as listed by the source S531A): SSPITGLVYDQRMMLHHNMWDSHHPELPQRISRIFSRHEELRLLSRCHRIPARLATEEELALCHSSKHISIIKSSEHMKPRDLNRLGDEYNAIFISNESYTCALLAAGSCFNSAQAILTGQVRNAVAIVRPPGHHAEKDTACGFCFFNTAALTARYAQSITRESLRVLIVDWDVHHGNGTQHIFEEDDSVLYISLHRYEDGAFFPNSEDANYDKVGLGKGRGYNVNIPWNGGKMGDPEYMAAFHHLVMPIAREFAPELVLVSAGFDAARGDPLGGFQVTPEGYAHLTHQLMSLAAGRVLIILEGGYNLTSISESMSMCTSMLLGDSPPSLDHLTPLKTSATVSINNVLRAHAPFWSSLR

[5] = target: T5, Histone deacetylase 6 [60-420,H82F,F202Y] (Danio rerio, UniProt F8W4B7, F202Y/H82F)
T5 construct: 60-420
T5 sequence (F8W4B7 as listed by the source H82F/F202Y): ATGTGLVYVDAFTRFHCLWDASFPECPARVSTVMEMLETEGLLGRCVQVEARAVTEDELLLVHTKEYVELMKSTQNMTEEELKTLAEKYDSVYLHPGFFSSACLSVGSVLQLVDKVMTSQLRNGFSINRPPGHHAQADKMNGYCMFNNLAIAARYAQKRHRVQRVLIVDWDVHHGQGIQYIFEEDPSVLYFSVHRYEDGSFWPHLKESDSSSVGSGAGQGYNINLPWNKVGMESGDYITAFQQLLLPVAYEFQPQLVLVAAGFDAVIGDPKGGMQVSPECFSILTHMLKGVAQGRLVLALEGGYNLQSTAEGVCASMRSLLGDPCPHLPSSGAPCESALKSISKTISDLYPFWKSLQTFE

[6] = target: T6, Histone deacetylase 6 [84-835] (Homo sapiens, UniProt Q9UBN7)
T6 construct: 84-835
T6 sequence (Q9UBN7 whole entry): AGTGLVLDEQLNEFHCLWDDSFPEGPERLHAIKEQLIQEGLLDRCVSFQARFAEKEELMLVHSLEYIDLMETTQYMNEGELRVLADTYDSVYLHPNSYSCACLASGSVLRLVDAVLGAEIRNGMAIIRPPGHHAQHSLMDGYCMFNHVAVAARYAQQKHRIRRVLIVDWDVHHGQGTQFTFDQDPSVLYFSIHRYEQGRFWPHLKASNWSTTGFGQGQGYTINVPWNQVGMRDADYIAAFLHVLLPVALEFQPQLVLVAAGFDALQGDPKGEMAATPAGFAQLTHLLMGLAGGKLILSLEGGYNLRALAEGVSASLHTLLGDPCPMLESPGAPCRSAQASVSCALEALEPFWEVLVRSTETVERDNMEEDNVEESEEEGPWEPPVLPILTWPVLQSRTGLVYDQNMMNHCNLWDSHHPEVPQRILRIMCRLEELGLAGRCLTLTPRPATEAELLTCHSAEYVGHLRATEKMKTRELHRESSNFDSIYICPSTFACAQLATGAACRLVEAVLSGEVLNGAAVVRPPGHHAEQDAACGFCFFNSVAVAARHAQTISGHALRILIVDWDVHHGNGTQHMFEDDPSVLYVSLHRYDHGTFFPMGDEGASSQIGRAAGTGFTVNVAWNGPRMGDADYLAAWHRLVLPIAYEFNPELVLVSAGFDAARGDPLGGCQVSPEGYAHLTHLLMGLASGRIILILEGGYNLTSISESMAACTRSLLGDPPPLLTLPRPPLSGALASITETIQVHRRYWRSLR

[7] = target: T7, Histone deacetylase 6 [84-835,H255V] (Homo sapiens, UniProt Q9UBN7, H255V)
T7 construct: 84-835
T7 sequence (Q9UBN7 84-835 H255V): as the sequence (Q9UBN7 84-835 H651V) above, with H172V, V568H counted along it

| IC50 [1] | Ki [1] | Compound | other results |
| --- | --- | --- | --- |
| 1.8 nM | 1 nM | O=C(NO)c1ccc(CC(=O)N(CCO)c2ccccc2)cc1 [HPOB] |  |
| ≤ 1.1 nM | 0.6 nM | O=C(CCCCCCC(=O)Nc1ccccc1)NO [Zolinza] |  |
| 2.5 nM | 1.4 nM | Cc1[nH]c2ccccc2c1CCNCc1ccc(C=CC(=O)NO)cc1 [Panobinostat] |  |
| 1.9 nM | 1.1 nM | O=C(/C=C/c1cccc(S(=O)(=O)Nc2ccccc2)c1)NO [Belinostat] |  |
|  |  | O=C(CCCCCCC(=O)Nc1ccc(-c2c3ccc(=O)cc-3oc3cc(O)ccc23)c(C(=O)O)c1)NO [fl-SAHA] | Kd [2]: 30000 nM; Kd [3]: 1600 nM; Kd [4]: 170 nM; Kd [5]: 2900 nM; Kd [6]: 300 nM; Kd [7]: 240 nM; Kd [1]: 50 nM |

| Compound | IC50 [1] | Ki [1] | other results |
| --- | --- | --- | --- |
| CC(=O)C(F)(F)F [Trifluoroketone] | 1400 nM | 800 nM |  |
